{"source": "paper PMC11278298", "about": "“Generation, Characterisation and Identification of Bioactive Peptides from Mesopelagic Fish Protein Hydrolysates Using In Silico and In Vitro Approaches” (Marine Drugs, 2024)", "key": {"[1]": {"molecular_target": "T1, human COX-2 enzyme (Homo sapiens, UniProt P35354)", "T1 construct": "purchased Cayman Chemicals 701050", "T1 sequence (P35354 18-604)": "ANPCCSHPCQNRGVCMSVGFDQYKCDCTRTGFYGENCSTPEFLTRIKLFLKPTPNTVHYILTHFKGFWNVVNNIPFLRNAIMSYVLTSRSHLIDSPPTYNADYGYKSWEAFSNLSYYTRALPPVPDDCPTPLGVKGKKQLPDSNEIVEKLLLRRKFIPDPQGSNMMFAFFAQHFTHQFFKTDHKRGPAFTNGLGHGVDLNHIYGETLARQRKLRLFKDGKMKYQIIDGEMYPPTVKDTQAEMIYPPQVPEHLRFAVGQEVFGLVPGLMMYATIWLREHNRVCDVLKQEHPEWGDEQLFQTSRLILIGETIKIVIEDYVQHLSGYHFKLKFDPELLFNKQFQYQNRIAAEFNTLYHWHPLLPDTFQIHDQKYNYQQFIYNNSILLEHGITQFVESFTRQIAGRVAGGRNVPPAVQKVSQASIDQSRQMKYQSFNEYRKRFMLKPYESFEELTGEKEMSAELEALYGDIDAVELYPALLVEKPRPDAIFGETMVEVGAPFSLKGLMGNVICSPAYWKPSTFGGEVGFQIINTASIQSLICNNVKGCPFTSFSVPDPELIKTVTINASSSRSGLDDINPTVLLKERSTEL", "test": "COX colourimetric inhibition screening assay, COX-2", "assay_type": "biochemical", "conditions": "for IC50 / inhibition at 1000 µg/mL: synthesised peptide; for inhibition at 1000 µg/mL: 1 mg/mL", "description": "The anti-pain and anti-inflammatory bioactivities of generated mesopelagic hydrolysates and permeates were assessed using a cyclooxygenase inhibition assay, targeting human COX-2 and ovine COX-1 enzymes, as described previously. […] They can influence pain and inflammation related to diseases like osteoarthritis and rheumatoid arthritis, musculoskeletal injury, migraines, and cancer. COX inhibitors are indicated for mild pain and are usually prescribed for short durations of time to patients."}, "[2]": {"molecular_target": "T2, ovine COX-1 enzyme (Ovis aries, UniProt P05979)", "T2 construct": "purchased Cayman Chemicals 701050", "T2 sequence (P05979 25-600)": "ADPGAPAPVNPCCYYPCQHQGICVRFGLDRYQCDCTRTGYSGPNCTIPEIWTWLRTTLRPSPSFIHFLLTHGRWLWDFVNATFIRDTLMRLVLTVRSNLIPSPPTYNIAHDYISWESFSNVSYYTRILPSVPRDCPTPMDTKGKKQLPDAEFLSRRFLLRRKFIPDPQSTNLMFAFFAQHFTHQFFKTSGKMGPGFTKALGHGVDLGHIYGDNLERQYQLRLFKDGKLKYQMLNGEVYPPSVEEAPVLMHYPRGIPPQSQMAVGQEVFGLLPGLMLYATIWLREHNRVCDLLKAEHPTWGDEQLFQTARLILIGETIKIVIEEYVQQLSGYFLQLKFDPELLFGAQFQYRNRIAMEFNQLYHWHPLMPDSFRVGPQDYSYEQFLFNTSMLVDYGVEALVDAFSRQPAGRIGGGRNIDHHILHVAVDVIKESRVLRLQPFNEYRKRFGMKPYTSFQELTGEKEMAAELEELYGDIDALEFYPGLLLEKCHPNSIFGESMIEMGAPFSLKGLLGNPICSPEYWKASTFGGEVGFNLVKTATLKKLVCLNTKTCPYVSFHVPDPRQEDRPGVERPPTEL", "test": "COX colourimetric inhibition screening assay, COX-1", "assay_type": "biochemical", "conditions": "synthesised peptide", "description": "The anti-pain and anti-inflammatory bioactivities of generated mesopelagic hydrolysates and permeates were assessed using a cyclooxygenase inhibition assay, targeting human COX-2 and ovine COX-1 enzymes, as described previously. COX (Prostaglandin H synthase) inhibition plays a positive role in the prevention of a variety of health conditions, and COX inhibitors have documented analgesic, anti-inflammatory, and antipyretic properties. They can influence pain and inflammation related to diseases like osteoarthritis and rheumatoid arthritis, musculoskeletal injury, migraines, and cancer. COX inhibitors are indicated for mild pain and are usually prescribed for short durations of time to patients. […] COX inhibition was calculated using the following Equation:% COX inhibition = (Corrected 100% initial activity − Corrected Inhibitor activity)/(Corrected 100% initial activity) × 100(1) where Corrected 100% initial activity was the absorbance value recorded for wells containing 150 µL 1× assay Buffer, 10 µL of either COX-1 or COX-2 enzyme and 10 µL of solvent (DMSO) minus the absorbance value recorded for the background well containing 160 µL of 1× Assay Buffer and 10 µL of solvent."}, "[3]": {"molecular_target": "T3, MAGL enzyme (Homo sapiens, UniProt Q99685)", "T3 construct": "purchased Cayman", "T3 sequence (Q99685 1-303)": "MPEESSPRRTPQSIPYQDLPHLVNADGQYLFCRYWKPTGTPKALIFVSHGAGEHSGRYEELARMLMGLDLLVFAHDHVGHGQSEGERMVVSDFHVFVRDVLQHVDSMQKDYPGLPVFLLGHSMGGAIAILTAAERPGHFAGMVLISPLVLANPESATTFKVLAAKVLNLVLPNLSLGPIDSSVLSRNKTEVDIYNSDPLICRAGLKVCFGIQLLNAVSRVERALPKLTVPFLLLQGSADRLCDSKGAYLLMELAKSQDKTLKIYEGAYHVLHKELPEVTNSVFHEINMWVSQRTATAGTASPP", "test": "Monoacylglycerol lipase inhibition screening assay", "assay_type": "biochemical", "description": "Monoacylglycerol lipase (MAGL) is a serine hydrolase that catalyses the hydrolysis of monoglycerides into glycerol and fatty acids and links the endocannabinoid and eicosanoid systems through degradation of 2-arachidaoylglycerol to arachidonic acid, a precursor of prostaglandins and other inflammatory mediators. MAGL inhibitors can have anti-nociceptive, anxiolytic, anti-inflammatory and even anti-cancer benefits. The Cayman’s Monoacylglycerol lipase inhibition screening assay kit was used to measure the inhibition of MAGL by generated hydrolysates and the positive control JZL 195 inhibitor. The assay was performed in compliance with the manufacturer’s instructions. MAGL hydrolyses 4-Nitrophenylacetate, resulting in a yellow product, 4-nitrophenol, that has an absorbance between 405–412 nm. The […] of the yellow colour is indicative of MAGL inhibition. MAGL inhibition was calculated using the following Equation:% MAGL inhibition = (corrected 100% initial activity − corrected inhibitor activity)/(corrected 100% initial activity) × 100(2) where corrected 100% initial activity was the absorbance value recorded for wells containing 150 µL 1× assay Buffer, 10 µL of MAGL enzyme and 10 µL of solvent minus the absorbance value recorded for the background well containing 160 µL of 1× Assay Buffer and 10 µL of solvent (1.4% DMSO in water)."}, "[4]": {"tested_on": "COX-1", "parameters": "method as in PMID 20188172", "conditions": "known COX-1 selective inhibitors from Chinese herbs; cited from earlier work"}, "[5]": {"tested_on": "COX-2", "parameters": "method as in PMID 20188172", "conditions": "known COX-2 selective inhibitors; read-out: COX2- IC50; cited from earlier work"}, "[6]": {"tested_on": "LOX-1 expression", "parameters": "method as in PMID 30955604", "conditions": "peptides from amaranth; cited from earlier work"}, "[7]": {"tested_on": "nitric oxide (NO) production", "parameters": "method as in doi:10.48022/mbl.2109.09005", "conditions": "peptide from mollusc abalone; cited from earlier work"}}, "note": "Residues, ends and D or L forms follow the SMILES beside them.", "data": [{"compound": "CC[C@H](C)[C@H](N)C(=O)N[C@@H](C)C(=O)NCC(=O)N[C@@H](Cc1ccccc1)C(=O)N[C@@H](CCC(=O)O)C(=O)N[C@H](C(=O)N[C@@H](Cc1ccccc1)C(=O)N[C@@H](CC(=O)O)C(=O)N[C@@H](Cc1ccccc1)C(=O)N[C@@H](CC(N)=O)C(=O)N[C@@H](CO)C(=O)N[C@@H](CC(C)C)C(=O)N[C@@H](CCC(=O)O)C(=O)N[C@@H](CCC(N)=O)C(=O)N[C@@H](CC(C)C)C(=O)N[C@@H](CS)C(=O)O)[C@@H](C)CC", "note": "(H-IAGFEIFDFNSLEQLC-OH)", "values": [{"measurement": "selectivity index", "setting": "[1]; COX-1 versus COX-2 IC50 of synthesised peptide", "result": 0.52}, {"measurement": "IC50", "setting": "[1]", "result": 366, "unit": "µM"}, {"measurement": "inhibition at 1000 µg/mL", "setting": "[1]", "result": 47.5, "unit": "%"}, {"measurement": "IC50", "setting": "[2]", "result": 103, "unit": "µM"}, {"measurement": "inhibition at 1000 µg/mL", "setting": "[2]; 1 mg/mL", "result": 53.3, "unit": "%"}]}, {"compound": "CC[C@H](C)[C@H](NC(=O)[C@H](CC(C)C)NC(=O)[C@H](C)NC(=O)[C@H](CCC(=O)O)NC(=O)[C@@H]1CCCN1C(=O)[C@H](CC(C)C)NC(=O)CNC(=O)[C@H](CC(C)C)NC(=O)[C@H](C)NC(=O)[C@H](C)NC(=O)[C@@H](NC(=O)[C@H](CC(C)C)NC(=O)[C@H](Cc1ccccc1)NC(=O)[C@@H](NC(=O)[C@H](CS)NC(=O)[C@@H](NC(=O)[C@@H](NC(=O)[C@H](CCC(=O)O)NC(=O)CNC(=O)[C@@H](NC(=O)[C@@H](N)CC(N)=O)C(C)C)C(C)C)C(C)C)[C@@H](C)CC)[C@@H](C)O)C(=O)O", "note": "(H-NVGEVVCIFLTAALGLPEALI-OH)", "values": [{"measurement": "IC50", "setting": "[3]; synthesised peptide", "result": 6.35, "unit": "µM"}, {"measurement": "inhibition at 500 µg/mL", "setting": "[3]; synthesised peptide, 0.5 mg/mL", "result": 53, "unit": "%"}]}, {"compound": "CSCC[C@H](NC(=O)[C@H](Cc1ccccc1)NC(=O)[C@H](CCC(N)=O)NC(=O)[C@H](Cc1ccc(O)cc1)NC(=O)[C@H](C)NC(=O)[C@H](CC(N)=O)NC(=O)[C@H](CC(=O)O)NC(=O)[C@@H](N)CO)C(=O)N[C@@H](CC(C)C)C(=O)N[C@H](C(=O)O)[C@@H](C)O", "note": "(H-SDNAYQFMLT-OH)", "values": [{"measurement": "inhibition at 500 µg/mL", "setting": "[2]; 0.5 mg/mL", "result": 53.7, "unit": "%"}]}, {"compound": "CC(=O)O[C@@H]1CC[C@@]2(C)[C@@H](CC[C@]3(C)[C@@H]2C(=O)C=C2[C@@H]4[C@@H](C)[C@H](C)CC[C@]4(C)CC[C@]23C)[C@@]1(C)C(=O)O", "note": "[Acetyl-11-keto-β-boswellic acid]", "values": [{"measurement": "IC50", "setting": "[4]", "result": "~10", "unit": "µM"}]}, {"compound": "O=C(Oc1ccc([N+](=O)[O-])cc1)N1CCN(Cc2cccc(Oc3ccccc3)c2)CC1", "note": "[JZL 195, reference compound]", "values": [{"measurement": "% MAGL inhibition", "setting": "[3]; positive control at 4.4 µM", "result": 98.16, "unit": "%"}]}, {"compound": "CC(C)C[C@H](NC(=O)[C@H](C)NC(=O)[C@H](Cc1c[nH]c2ccccc12)NC(=O)[C@@H]1CCCN1C(=O)[C@H](CCCNC(=N)N)NC(=O)[C@H](Cc1c[nH]cn1)NC(=O)[C@H](CC(C)C)NC(=O)[C@@H]1CCCN1C(=O)[C@H](CS)NC(=O)[C@@H](N)CCC(N)=O)C(=O)O", "note": "[QCPLHRPWAL] (H-QCPLHRPWAL-OH)", "values": [{"measurement": "IC50", "setting": "[1]", "result": 221, "unit": "µM"}, {"measurement": "inhibition at 1000 µg/mL", "setting": "[1]", "result": 53.8, "unit": "%"}, {"measurement": "% COX-1 inhibition", "setting": "[2]; concentration not printed with the value", "result": "82.90% (+/−0.54)"}]}, {"compound": "CCC/C=C1\\OC(=O)C2=C1CC[C@H]1[C@H]3C=C4C(=O)O/C(=C\\CCC)[C@@]4(CC3)[C@@H]21", "note": "[Senkyunolide O]", "values": [{"measurement": "IC50", "setting": "[5]", "result": 5, "unit": "µM"}]}, {"compound": "CC(=O)O[C@@H]1CC[C@@]2(C)[C@@H](CC[C@]3(C)[C@@H]2CC=C2[C@@H]4CC(C)(C)CC[C@]4(C)CC[C@]23C)[C@@]1(C)C(=O)O", "note": "[acetyl-α-boswellic acid]", "values": [{"measurement": "IC50", "setting": "[4]", "result": "~10", "unit": "µM"}]}, {"compound": "CC(=O)O[C@@H]1CC[C@@]2(C)[C@@H](CC[C@]3(C)[C@@H]2CC=C2[C@@H]4[C@@H](C)[C@H](C)CC[C@]4(C)CC[C@]23C)[C@@]1(C)C(=O)O", "note": "[acetyl-β-boswellic acid]", "values": [{"measurement": "IC50", "setting": "[4]", "result": "~10", "unit": "µM"}]}, {"compound": "C[C@H]1COC2=C1C(=O)C(=O)c1c2ccc2c1CCCC2(C)C", "note": "[cryptotanshinone]", "values": [{"measurement": "IC50", "setting": "[5]", "result": 22, "unit": "µM"}]}, {"compound": "C[C@H]1[C@H](C)CC[C@]2(C)CC[C@]3(C)C(=CC[C@@H]4[C@@]5(C)CC[C@@H](O)[C@](C)(C(=O)O)[C@@H]5CC[C@]43C)[C@H]12", "note": "[β-boswellic acid]", "values": [{"measurement": "IC50", "setting": "[4]", "result": "~10", "unit": "µM"}]}, {"compound": "FDAFLPM [peptide from Irish M. muelleri Alcalase hydrolysate (Code 23), chemically synthesised]", "values": [{"measurement": "% COX-1 inhibition", "setting": "[2]; 0.5 mg/mL", "result": 34.49, "unit": "%"}]}, {"compound": "HGSEPFGPR [literature anti-inflammatory peptide from amaranth]", "values": [{"measurement": "effect on LOX-1 expression", "setting": "[6]", "result": "reduce LOX-1 expression"}]}, {"compound": "PFNEGTFAAS [literature peptide derived from mollusc abalone]", "values": [{"measurement": "NO IC50", "setting": "[7]", "result": 54.07, "unit": "mg/L"}]}, {"compound": "RPRYPWRYT [literature anti-inflammatory peptide from amaranth]", "values": [{"measurement": "effect on LOX-1 expression", "setting": "[6]", "result": "reduce LOX-1 expression"}]}]}
